Assay results published in ChEMBL document CHEMBL1201862, “PubChem BioAssay data set” (2004).
“And” between values parts separate entries of the source, which are not always exact repeats. Identical values can stand only once.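 Exposure lasted 48 hours, with cells grown in 96-well plates and compounds tested at five concentrations. Abbreviation: GI50, concentration required for 50% inhibition of growth.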 The source made the active and inactive calls. No stated cut-off is given here; in the data, active = GI50 up to about 1.1 µM and inactive = higher.

Experiments:
Test in all cases: NCI-60 cell line screen, 48 h
[1] = system: DU-145
[2] = system: EKVX
[3] = system: HCT-15
[4] = system: IGROV-1
[5] = system: KM12
[6] = system: LOX IMVI
[7] = system: MDA-N
[8] = system: MOLT-4
[9] = system: NCI-H460
[10] = system: NCI/ADR-RES
[11] = system: OVCAR-8
[12] = system: SF-295
[13] = system: SF-539
[14] = system: SN12C
[15] = system: SNB-19
[16] = system: SR
[17] = system: UACC-257
[18] = system: UO-31

Row | SMILES | GI50 [1] | GI50 [2] | GI50 [3] | GI50 [4] | GI50 [5] | GI50 [6] | GI50 [7] | GI50 [8] | GI50 [9] | GI50 [10] | GI50 [11] | GI50 [12] | GI50 [13] | GI50 [14] | GI50 [15] | GI50 [16] | GI50 [17] | GI50 [18]
1 | O=C1c2cc(O)c(O)cc2O[C@H](c2ccc(O)c(O)c2)[C@H]1O | > 100 µM (inactive) | > 100 µM (inactive) | > 100 µM | > 100 µM (inactive) | > 100 µM (inactive) | > 100 µM (inactive) | > 100 µM (inactive) | > 100 µM (inactive) | 49.7 µM (inactive) | > 100 µM (inactive) | > 100 µM (inactive) | > 100 µM (inactive) | > 100 µM (inactive) | > 100 µM (inactive) | > 100 µM (inactive) | > 100 µM (inactive) | 98.9 µM (inactive) | > 100 µM (inactive)
2 | Nc1ccn(C2CC(O)C(COP(=O)(S)OC3CC(n4ccc(N)nc4=O)OC3CO)O2)c(=O)n1 (stereo unspecified) | > 100 µM (inactive) | > 100 µM (inactive) | > 100 µM | > 100 µM (inactive) | > 100 µM (inactive) | > 100 µM (inactive) | 4.93 µM (inactive) | > 100 µM (inactive) | > 100 µM (inactive) | > 100 µM (inactive) | > 100 µM (inactive) | > 100 µM (inactive) | > 100 µM (inactive) | 52.4 µM (inactive) | > 100 µM (inactive) | > 100 µM (inactive) | > 100 µM (inactive) | > 100 µM (inactive)
3 | COc1ccccc1/N=N/c1c(O)ccc2ccccc12 | 54.2 µM (inactive) and 98.9 µM (inactive) |  | > 63.2 µM |  | 51.6 µM (inactive) and > 45.5 µM (inactive) |  | 45.7 µM (inactive) and > 80.4 µM (inactive) | 64.3 µM (inactive) | 18.9 µM (inactive) | 42.1 µM (inactive) and 35 µM (inactive) | 25.8 µM (inactive) and 30.3 µM (inactive) | 20 µM (inactive) and 28.5 µM (inactive) |  | 71.4 µM (inactive) and 60.8 µM (inactive) | 27.6 µM (inactive) and 26.9 µM (inactive) | 24.3 µM (inactive) |  | 17.9 µM (inactive) and > 10 µM (inactive)
4 | COc1nc2c(c(=O)[nH]1)N=C(c1ccc(Cl)cc1)CC(c1ccccc1)N2 (stereo unspecified) | 40.6 µM (inactive) | 29.6 µM (inactive) | 24.2 µM | 31.9 µM (inactive) | 37.2 µM (inactive) | 22.5 µM (inactive) | 31 µM (inactive) | 35.6 µM (inactive) | 27.1 µM (inactive) | 23.8 µM (inactive) | 21.2 µM (inactive) | 23.1 µM (inactive) | 21.6 µM (inactive) | 22.7 µM (inactive) | 35.6 µM (inactive) | 61.4 µM (inactive) | 36.8 µM (inactive) | 29.6 µM (inactive)
5 | CC1=NN(c2nc(N)nc(/C(C#N)=C\C3COc4ccccc4C3=O)n2)C(C)(C)C1 (stereo unspecified) | 31.6 µM (inactive) | 22.5 µM (inactive) | 22.9 µM | 32.7 µM (inactive) | 36.7 µM (inactive) | 27.2 µM (inactive) | 18.9 µM (inactive) | 21.8 µM (inactive) | 26.9 µM (inactive) | 15.9 µM (inactive) | 25.6 µM (inactive) | 31.3 µM (inactive) | 26.2 µM (inactive) |  |  | 17.6 µM (inactive) | 51.4 µM (inactive) | 18.9 µM (inactive)
6 | CC(=O)Nc1ccc(NS(=O)(=O)c2ccc3nc(C)n(NS(=O)(=O)c4ccc(NC(C)=O)cc4)c(=O)c3c2)cc1 | > 100 µM (inactive) | > 100 µM (inactive) | > 100 µM | > 100 µM (inactive) | > 100 µM (inactive) | > 100 µM (inactive) | > 100 µM (inactive) | > 100 µM (inactive) | > 100 µM (inactive) | > 100 µM (inactive) | > 100 µM (inactive) | > 100 µM (inactive) | > 100 µM (inactive) | > 100 µM (inactive) | > 100 µM (inactive) | > 100 µM (inactive) | > 100 µM (inactive) | > 100 µM (inactive)
